Measured values from publication PMC4599074 (Drug Design, Development and Therapy, 2015).

Experiments:
MAO-B [1] = target: T1, MAO-B (Homo sapiens, UniProt P27338); settings: for SI (selectivity index for the MAO-B isoform): ratio IC50 (MAO-A)/IC50 (MAO-B)
T1 sequence (P27338 1-520): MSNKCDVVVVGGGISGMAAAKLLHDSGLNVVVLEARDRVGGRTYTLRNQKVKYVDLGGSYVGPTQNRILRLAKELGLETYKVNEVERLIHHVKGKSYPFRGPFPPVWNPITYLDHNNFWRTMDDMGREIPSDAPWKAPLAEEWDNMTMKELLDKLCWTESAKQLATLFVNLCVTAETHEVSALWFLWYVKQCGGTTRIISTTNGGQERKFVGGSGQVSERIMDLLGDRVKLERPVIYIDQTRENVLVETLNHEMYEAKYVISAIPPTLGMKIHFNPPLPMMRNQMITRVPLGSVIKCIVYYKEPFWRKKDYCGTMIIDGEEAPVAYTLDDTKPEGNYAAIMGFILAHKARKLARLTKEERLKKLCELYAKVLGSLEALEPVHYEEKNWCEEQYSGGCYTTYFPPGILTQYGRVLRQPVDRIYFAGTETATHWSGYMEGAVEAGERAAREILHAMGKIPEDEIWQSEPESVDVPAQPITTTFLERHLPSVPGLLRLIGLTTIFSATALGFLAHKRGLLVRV

MAO-A [2] = target: T2, MAO-A (Homo sapiens, UniProt P21397); experiment: biochemical
T2 sequence (P21397 1-527): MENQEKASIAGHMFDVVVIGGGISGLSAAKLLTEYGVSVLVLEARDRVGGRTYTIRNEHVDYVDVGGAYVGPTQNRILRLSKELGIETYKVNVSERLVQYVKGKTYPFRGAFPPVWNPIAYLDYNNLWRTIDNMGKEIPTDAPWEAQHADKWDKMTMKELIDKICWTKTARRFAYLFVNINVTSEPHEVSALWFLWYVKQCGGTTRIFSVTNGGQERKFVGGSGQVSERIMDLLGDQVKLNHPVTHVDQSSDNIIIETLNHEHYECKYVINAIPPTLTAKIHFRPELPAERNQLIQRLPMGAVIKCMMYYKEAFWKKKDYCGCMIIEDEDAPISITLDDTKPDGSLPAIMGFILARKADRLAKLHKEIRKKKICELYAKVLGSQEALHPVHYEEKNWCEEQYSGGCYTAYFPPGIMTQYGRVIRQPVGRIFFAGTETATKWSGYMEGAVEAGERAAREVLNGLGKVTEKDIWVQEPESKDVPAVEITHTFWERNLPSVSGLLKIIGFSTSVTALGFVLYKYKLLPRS

MAO-B [3] = target: T1, MAO-B; experiment: biochemical
MAO-B [4] = target: T1, MAO-B; experiment: Lineweaver–Burk plots, mode of inhibition and Ki for MAO-B; settings: Ki for the inhibition of MAO-B, global (shared) fitting to the Michaelis–Menten equation, r2 = 0.99
MAO-B [5] = target: T1, MAO-B; experiment: Reversibility of MAO-B inhibition by dialysis of enzyme/inhibitor mixtures; format: biochemical; settings: for residual MAO-B activity after dialysis (% of negative control): combined with MAO-B 15 minutes, dialyzed 24 hours, 5g at 4× IC50
MAO-A [6] = target: T2, MAO-A; experiment: Reversibility of MAO-A inhibition by dialysis of enzyme/inhibitor mixtures; settings: for residual MAO-A activity after dialysis (% of negative control): combined with MAO-A 15 minutes, dialyzed 24 hours
MAO-A [7] = target: T2, MAO-A; settings: from IC50 values
MAO-A [8] = target: T2, MAO-A; settings: read-out: Km for oxidation by MAO-A; substrate Km, previous studies; cited from earlier work
MAO-B [9] = target: T1, MAO-B; settings: read-out: Km for oxidation by MAO-B; substrate Km, previous studies; cited from earlier work
[10] = undialyzed, inhibitor at 4× IC50

| Molecule | SI (selectivity index for the MAO-B isoform) (MAO-B [1]) | IC50 (MAO-A [2]) [nM] | IC50 (MAO-B [3]) [nM] | also measured |
| --- | --- | --- | --- | --- |
| O=C1COc2cc(OCc3cccc(Cl)c3)ccc21 [5e, 6-(3-Chlorobenzyloxy)-2H-1-benzofuran-3-one] | 1,558 | 18700 ± 7820 | 12 ± 3 |  |
| O=C1COc2cc(OCCc3ccccc3)ccc21 [5o, 6-(2-Phenylethoxy)-2H-1-benzofuran-3-one] | 129 | 13800 ± 2110 | 107 ± 10 |  |
| O=C1COc2cc(O)ccc21 [compound 6, 6-Hydroxy-3-coumaranone, reference compound] |  | > 100000 | 12000 ± 4210 | fold weaker as MAO-B inhibitor compared to 5a (MAO-B [1]; from IC50 values): 193 fold |
| O=C1COc2cc(OCc3ccc(Cl)cc3)ccc21 [5d, 6-(4-Chlorobenzyloxy)-2H-1-benzofuran-3-one] | 115 | 2190 ± 135 | 19 ± 7 |  |
| O=C1COc2cc(OCc3cccc(I)c3)ccc21 [5i, 6-(3-Iodobenzyloxy)-2H-1-benzofuran-3-one] | 1,081 | 7570 ± 1820 | 7 ± 1 |  |
| O=C1COc2cc(OCc3ccccc3)ccc21 [5a, 6-(Benzyloxy)-2H-1-benzofuran-3-one] | 431 | 26700 ± 351 | 62 ± 11 |  |
| O=C1COc2cc(OCc3ccc(Br)cc3)ccc21 [5f, 6-(4-Bromobenzyloxy)-2H-1-benzofuran-3-one] | 175 | 2800 ± 79 | 16 ± 3 |  |
| O=C1COc2cc(OCc3cccc(Br)c3)ccc21 [5g, 6-(3-Bromobenzyloxy)-2H-1-benzofuran-3-one] | 980 | 3920 ± 827 | 4 ± 1 | fold more potent MAO-B inhibitor than lazabemide (MAO-B [1]; from IC50 values): 22 fold; Ki (MAO-B [4]): 3.4 ± 0.3 nM; residual MAO-B activity after dialysis (% of negative control) (MAO-B [5]): 87%; reversibility of MAO-B inhibition (MAO-B [5]; dialysis 24 hours): reversible MAO-B inhibitor; residual MAO-B activity of undialyzed mixtures (% of negative control) (MAO-B [5]; [10]): 42% |
| Cc1ccc(COc2ccc3c(c2)OCC3=O)cc1 [5l, 6-(4-Methylbenzyloxy)-2H-1-benzofuran-3-one] | >1,852 | > 100000 | 54 ± 11 |  |
| O=C1COc2cc(OCCCc3ccccc3)ccc21 [5p, 6-(3-Phenylpropoxy)-2H-1-benzofuran-3-one] | 215 | 11800 ± 930 | 55 ± 8 |  |
| C#CCN(C)Cc1ccccc1 [pargyline, reference compound] |  |  |  | residual MAO-A activity after dialysis (% of negative control) (MAO-A [6]; inhibitor at 4× IC50): 1.6% |
| O=C1COc2cc(OCCOc3ccccc3)ccc21 [5q, 6-(2-Phenoxyethoxy)-2H-1-benzofuran-3-one] | >2,000 | > 100000 | 50 ± 6 |  |
| N#Cc1cccc(COc2ccc3c(c2)OCC3=O)c1 [5k, 6-(3-Cyanobenzyloxy)-2H-1-benzofuran-3-one] | 3.5 | 586 ± 133 | 166 ± 15 | residual MAO-A activity after dialysis (% of negative control) (MAO-A [6]; inhibitor at 4× IC50): 109%; reversibility of MAO-A inhibition (MAO-A [6]; dialysis 24 hours): reversible; residual MAO-A activity of undialyzed mixtures (% of negative control) (MAO-A [6]; [10]): 65%; fold more potent MAO-A inhibitor than toloxatone (MAO-A [7]): sixfold |
| Cc1cccc(COc2ccc3c(c2)OCC3=O)c1 [5m, 6-(3-Methylbenzyloxy)-2H-1-benzofuran-3-one] | 646 | 62000 ± 16900 | 96 ± 3 |  |
| O=C1COc2cc(OCc3ccc(I)cc3)ccc21 [5h, 6-(4-Iodobenzyloxy)-2H-1-benzofuran-3-one] |  | > 100000 | 28 ± 6 |  |
| O=C1COc2cc(OCc3ccc(C(F)(F)F)cc3)ccc21 [5n, 6-[4-(Trifluoromethyl)benzyloxy]-2H-1-benzofuran-3-one] | >2,564 | > 100000 | 39 ± 5 |  |
| Cc1ccc(CCOc2ccc3c(c2)OCC3=O)cc1 [5s, 6-[2-(4-Methylphenyl)ethoxy]-2H-1-benzofuran-3-one] | 11 | 11300 ± 683 | 1050 ± 147 |  |
| NCCC(=O)c1ccccc1N [kynuramine] |  |  |  | Km (MAO-A [8]): 41 µM; Km (MAO-B [9]): 29 µM |
| O=C1COc2cc(OCc3cccc(F)c3)ccc21 [5c, 6-(3-Fluorobenzyloxy)-2H-1-benzofuran-3-one] | 593 | 80700 ± 9220 | 136 ± 30 |  |
| Cc1cccc(CCOc2ccc3c(c2)OCC3=O)c1 [5t, 6-[2-(3-Methylphenyl)ethoxy]-2H-1-benzofuran-3-one] | 143 | 25900 ± 8720 | 181 ± 21 |  |
| N#Cc1ccc(COc2ccc3c(c2)OCC3=O)cc1 [5j, 6-(4-Cyanobenzyloxy)-2H-1-benzofuran-3-one] | 63 | 5010 ± 919 | 79 ± 19 |  |
| (R)-deprenyl [reference compound] |  |  |  | residual MAO-B activity after dialysis (% of negative control) (MAO-B [5]): 3.1% |
| O=C1COc2cc(OCCc3ccc(Br)cc3)ccc21 [5r, 6-[2-(4-Bromophenyl)ethoxy]-2H-1-benzofuran-3-one] | 4.7 | 2650 ± 629 | 564 ± 49 |  |
| O=C1COc2cc(OCc3ccc(F)cc3)ccc21 [5b, 6-(4-Fluorobenzyloxy)-2H-1-benzofuran-3-one] | 518 | 11400 ± 2540 | 22 ± 3 |  |
